ChEMBL document CHEMBL1201862, “PubChem BioAssay data set” (2004)
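Compound exposure: 48 hours, 5 concentrations, 96-well plates. Abbreviation: GI50, concentration required for 50% inhibition of growth.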 Activity calls are given as the source filed them. Rule as the data show it: active = GI50 up to about 1.1 µM and inactive = higher.

Tests used:
Assay in all cases: NCI anticancer screen, dose series, 48 h
MCF7 = system: MCF7
U-251 = system: U-251
EKVX = system: EKVX
SK-OV-3 = system: SK-OV-3
SN12C = system: SN12C
DU-145 = system: DU-145
HCT-15 = system: HCT-15
BT-549 = system: BT-549
KM12 = system: KM12
Hs-578T = system: Hs-578T
LOX IMVI = system: LOX IMVI
M14 = system: M14
SK-MEL-28 = system: SK-MEL-28
SF-268 = system: SF-268
CCRF-CEM = system: CCRF-CEM
MOLT-4 = system: MOLT-4
MDA-MB-435 = system: MDA-MB-435
OVCAR-8 = system: OVCAR-8
A498 = system: A498

Compound	GI50 (MCF7)	GI50 (U-251)	GI50 (EKVX)	GI50 (SK-OV-3)	GI50 (SN12C)	GI50 (DU-145)	GI50 (HCT-15) [µM]	GI50 (BT-549)	GI50 (KM12)	GI50 (Hs-578T)	GI50 (LOX IMVI)	GI50 (M14)	GI50 (SK-MEL-28)	GI50 (SF-268)	GI50 (CCRF-CEM)	GI50 (MOLT-4)	GI50 (MDA-MB-435)	GI50 (OVCAR-8)	GI50 (A498)
O=C(N/N=C\c1ccc2ccccc2c1)Nc1ccc([N+](=O)[O-])cc1	22.3 µM (inactive)	29.3 µM (inactive)	47.3 µM (inactive)	18.9 µM (inactive)	24.2 µM (inactive)	23.7 µM (inactive)	16.8	24.3 µM (inactive)	33.4 µM (inactive)	32.9 µM (inactive)	30.5 µM (inactive)	32.2 µM (inactive)	26.2 µM (inactive)	27 µM (inactive)	28.6 µM (inactive)	20 µM (inactive)	31.1 µM (inactive)	23 µM (inactive)	–
Nc1nc(O)c2ncn([C@H]3CC[C@@H](CO)O3)c2n1	> 100 µM (inactive)	> 100 µM (inactive)	–	> 100 µM (inactive)	> 100 µM (inactive)	> 100 µM (inactive)	> 100	> 100 µM (inactive)	> 100 µM (inactive)	> 100 µM (inactive)	> 100 µM (inactive)	> 100 µM (inactive)	> 100 µM (inactive)	–	> 100 µM (inactive)	> 100 µM (inactive)	> 100 µM (inactive)	> 100 µM (inactive)	> 100 µM (inactive)
CCCNC(=O)c1cc(NC(=O)c2cc(NC(=O)CCS(=O)(=O)OC)cn2C)cn1C	20.5 µM (inactive)	6.62 µM (inactive)	51.1 µM (inactive)	9.55 µM (inactive)	13.8 µM (inactive)	24.2 µM (inactive)	> 100	3.68 µM (inactive)	21.9 µM (inactive)	32.7 µM (inactive)	14.6 µM (inactive)	28.6 µM (inactive)	33.3 µM (inactive)	–	0.902 µM (active)	17.5 µM (inactive)	19.1 µM (inactive)	15.2 µM (inactive)	> 69.3 µM (inactive)
CC(CC(=O)O)(CC(=O)O)C(=O)O	> 100 µM (inactive)	> 100 µM (inactive)	> 100 µM (inactive)	> 100 µM (inactive)	> 100 µM (inactive)	> 100 µM (inactive)	> 100	> 100 µM (inactive)	> 100 µM (inactive)	> 100 µM (inactive)	> 100 µM (inactive)	> 100 µM (inactive)	> 100 µM (inactive)	> 100 µM (inactive)	–	> 100 µM (inactive)	> 100 µM (inactive)	> 100 µM (inactive)	> 100 µM (inactive)
C#CC(O)Cc1ccc(OC)c2occc12 (stereo not given)	> 100 µM (inactive)	> 100 µM (inactive)	69.3 µM (inactive)	> 100 µM (inactive)	> 100 µM (inactive)	> 100 µM (inactive)	> 100	> 100 µM (inactive)	> 100 µM (inactive)	> 100 µM (inactive)	> 100 µM (inactive)	> 100 µM (inactive)	–	> 100 µM (inactive)	–	–	> 100 µM (inactive)	> 100 µM (inactive)	> 100 µM (inactive)
C=C1C(=O)O[C@H]2C[C@@]3(COC(C)=O)C=COC=C(COC(=O)C(C)C)C3CC12 (stereo not given in full)	52.4 µM (inactive)	29.4 µM (inactive)	> 100 µM (inactive)	–	37.7 µM (inactive)	> 100 µM (inactive)	> 100	> 100 µM (inactive)	> 100 µM (inactive)	> 100 µM (inactive)	45.2 µM (inactive)	–	> 100 µM (inactive)	> 10 µM (inactive)	24 µM (inactive)	28.4 µM (inactive)	73.5 µM (inactive)	53.3 µM (inactive)	–
CC1=C(C(=O)NCCc2ccccc2)CC(C(=O)NCCc2ccccc2)=C(C)N1	> 100 µM (inactive)	> 100 µM (inactive)	65.3 µM (inactive)	> 100 µM (inactive)	> 100 µM (inactive)	> 100 µM (inactive)	> 100	> 100 µM (inactive)	38.3 µM (inactive)	29.9 µM (inactive)	> 100 µM (inactive)	> 100 µM (inactive)	–	61 µM (inactive)	27.8 µM (inactive)	74 µM (inactive)	> 100 µM (inactive)	> 100 µM (inactive)	33.2 µM (inactive)
O=C(CNC(=O)c1ccccc1)Oc1c(Cl)c(Cl)c(Cl)c(Cl)c1Cl	40.2 µM (inactive)	26.7 µM (inactive)	21.5 µM (inactive)	72.4 µM (inactive)	32.1 µM (inactive)	23.4 µM (inactive)	30.6	20.5 µM (inactive)	22.4 µM (inactive)	24.9 µM (inactive)	35 µM (inactive)	64.9 µM (inactive)	39 µM (inactive)	40.6 µM (inactive)	38.7 µM (inactive)	29 µM (inactive)	36.1 µM (inactive)	22.1 µM (inactive)	–
CN1CCN(CCCN2c3ccccc3Sc3ccc(C(F)(F)F)cc32)CC1	4.61 µM (inactive)	4.95 µM (inactive)	10.6 µM (inactive)	13.5 µM (inactive)	7.57 µM (inactive)	10.5 µM (inactive)	4.33	12.1 µM (inactive)	2.94 µM (inactive)	3.4 µM (inactive)	2.73 µM (inactive)	1.72 µM (inactive)	1.66 µM (inactive)	7.78 µM (inactive)	–	2.92 µM (inactive)	2.92 µM (inactive)	13.1 µM (inactive)	12.6 µM (inactive)
O=C(O)Cc1cccc2c1OC(c1ccccc1)C(Cl)(C(=O)c1ccccc1)C2=O (stereo not given)	6.01 µM (inactive)	17.2 µM (inactive)	21.5 µM (inactive)	> 100 µM (inactive)	10.5 µM (inactive)	24.4 µM (inactive)	14.4	43 µM (inactive)	18.5 µM (inactive)	35 µM (inactive)	14.4 µM (inactive)	–	15.6 µM (inactive)	27.9 µM (inactive)	3.21 µM (inactive)	22.4 µM (inactive)	15.8 µM (inactive)	22.2 µM (inactive)	–
CCCn1c(=O)c2ccccc2[n+]2c(-c3ccc([N+](=O)[O-])cc3)csc12	29.9 µM (inactive)	34.4 µM (inactive)	42.7 µM (inactive)	36.9 µM (inactive)	41.3 µM (inactive)	38.9 µM (inactive)	34.3	33.9 µM (inactive)	18.8 µM (inactive)	23.3 µM (inactive)	22.1 µM (inactive)	35.6 µM (inactive)	–	41.8 µM (inactive)	27.2 µM (inactive)	30.6 µM (inactive)	38.6 µM (inactive)	13.6 µM (inactive)	25.2 µM (inactive)
O=C1COCCN1C(=O)c1ccccc1Cl	34 µM (inactive)	> 100 µM (inactive)	> 100 µM (inactive)	–	> 100 µM (inactive)	> 100 µM (inactive)	> 100	> 100 µM (inactive)	> 100 µM (inactive)	> 100 µM (inactive)	> 100 µM (inactive)	> 100 µM (inactive)	> 100 µM (inactive)	> 100 µM (inactive)	> 100 µM (inactive)	> 10 µM (inactive)	> 100 µM (inactive)	> 100 µM (inactive)	> 100 µM (inactive)
